Test results published in US9701709B2 (REATA PHARMACEUTICALS, INC., priority 2012, dated 2017).
Read-outs that look alike come from different tables or passages of the source.

Legend:
[1] = system: TNF-α-induced NF-κB activation in A549/NF-κB-Luc cells; experiment: TNF-α-induced NF-κB luciferase reporter in A549/NF-κB-Luc; format: cell-based; settings: Homo sapiens
Text: (b) TNF-α-induced activation of an NF-κB luciferase reporter in the human A549 cell line.
(§1) NF-κB is a transcription factor that plays a central role in the regulation of many immune and inflammatory responses. […] The NIH3T3/NF-κB-luc cell line maintains a chromosomal integration of a Firefly luciferase reporter construct regulated by eight copies of the NF-κB response element. The effects of these compounds can be quantified by measuring the value of the NF-κB IC50.

[2] = system: rat GSTA2 ARE (Nrf2) in AREc32 reporter cell line; experiment: GSTA2-ARE luciferase reporter in AREc32; settings: 4-fold GSTA2-ARE induction
[3] = system: human NQO1 ARE (Nrf2) in HuH-7 human hepatoma cells; experiment: NQO1-ARE luciferase reporter in HuH-7; format: cell-based; settings: for Concentration required to increase transcription from the NQO1 ARE by 2-fold: HuH-7, 18 h
Text: The first luciferase reporter tested was under the control of a single ARE derived from the promoter of the human NQO1 gene, which allows for quantitative assessment of the endogenous activity of the Nrf2 transcription factor in cultured mammalian cells. […] The NQO1-ARE-luciferase reporter plasmid was constructed by inserting the human NQO1-ARE ([NT] ID NO: 31) into the pLuc-MCS vector using HindIII/XhoI cloning sites (GenScript Corp., Piscataway, N.J.). […] Firefly and Renilla luciferase activity was assayed by Dual-Glo Luciferase Assay (cat # E2920, Promega), and the luminescence signal was measured on an L-Max II luminometer (Molecular Devices). Firefly luciferase activity was normalized to the Renilla activity, and fold induction over a vehicle control (DMSO) of normalized Firefly activity was calculated. […] Values represent the average of three independent experiments.

[4] = biological target: MRP-1 (Homo sapiens, UniProt P33527); experiment: in vitro; settings: not told
Chain of MRP-1 (P33527 whole entry): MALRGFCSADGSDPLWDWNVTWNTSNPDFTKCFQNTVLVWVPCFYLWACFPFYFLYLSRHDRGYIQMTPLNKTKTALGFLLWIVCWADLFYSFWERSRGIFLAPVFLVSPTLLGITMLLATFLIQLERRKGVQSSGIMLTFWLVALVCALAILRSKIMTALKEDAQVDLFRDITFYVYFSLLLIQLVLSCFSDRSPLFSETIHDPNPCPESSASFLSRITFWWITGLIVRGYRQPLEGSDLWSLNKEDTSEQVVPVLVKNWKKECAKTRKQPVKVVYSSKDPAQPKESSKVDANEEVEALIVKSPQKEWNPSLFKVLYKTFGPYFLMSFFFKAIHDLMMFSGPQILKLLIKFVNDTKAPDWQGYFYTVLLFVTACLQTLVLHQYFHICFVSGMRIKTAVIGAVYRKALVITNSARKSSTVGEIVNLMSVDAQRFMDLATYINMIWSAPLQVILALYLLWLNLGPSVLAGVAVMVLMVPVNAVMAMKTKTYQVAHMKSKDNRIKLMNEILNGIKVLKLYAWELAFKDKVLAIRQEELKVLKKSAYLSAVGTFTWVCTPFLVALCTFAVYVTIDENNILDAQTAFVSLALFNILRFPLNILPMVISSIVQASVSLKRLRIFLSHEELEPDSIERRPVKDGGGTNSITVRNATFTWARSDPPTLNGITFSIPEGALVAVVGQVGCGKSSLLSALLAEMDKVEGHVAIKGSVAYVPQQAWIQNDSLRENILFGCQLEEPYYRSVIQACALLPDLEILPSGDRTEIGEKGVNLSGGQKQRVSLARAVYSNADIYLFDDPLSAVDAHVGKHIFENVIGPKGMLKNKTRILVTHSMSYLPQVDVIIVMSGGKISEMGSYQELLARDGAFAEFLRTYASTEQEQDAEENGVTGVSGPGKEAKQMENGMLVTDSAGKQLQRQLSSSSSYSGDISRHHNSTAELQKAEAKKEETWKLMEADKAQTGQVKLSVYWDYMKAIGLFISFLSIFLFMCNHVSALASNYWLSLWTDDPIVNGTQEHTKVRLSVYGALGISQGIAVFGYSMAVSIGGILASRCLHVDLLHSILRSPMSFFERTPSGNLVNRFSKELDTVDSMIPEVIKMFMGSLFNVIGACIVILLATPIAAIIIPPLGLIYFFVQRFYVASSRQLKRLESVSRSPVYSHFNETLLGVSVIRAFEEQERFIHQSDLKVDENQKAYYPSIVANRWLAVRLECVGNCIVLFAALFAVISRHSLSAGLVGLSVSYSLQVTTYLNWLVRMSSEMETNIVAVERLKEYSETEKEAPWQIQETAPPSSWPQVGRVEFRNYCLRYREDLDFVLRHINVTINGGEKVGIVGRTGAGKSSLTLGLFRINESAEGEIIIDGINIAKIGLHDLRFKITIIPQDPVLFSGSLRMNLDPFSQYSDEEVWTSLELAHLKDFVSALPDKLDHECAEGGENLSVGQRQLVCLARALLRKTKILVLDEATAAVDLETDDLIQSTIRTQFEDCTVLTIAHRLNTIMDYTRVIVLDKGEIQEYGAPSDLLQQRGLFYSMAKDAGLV

[5] = system: NF-κB in NIH3T3/NF-κB-luc cell line; experiment: NF-κB luciferase reporter in NIH3T3/NF-κB-luc; format: cell-based; settings: Mus musculus
Text: (b) TNF-α-induced activation of an NF-κB luciferase reporter in the mouse NIH3T3 cell line.
as §1

[6] = system: NQO1 activity; experiment: NQO1 activity induction in mouse liver, lung, and kidney after PO QD×3; format: in vivo; settings: mice PO QD×3 25 mg/kg, 6 h after last dose
Procedure: FIG. 53—NQO1 activity induction in mouse liver, lung, and kidney by 63415. Mice were dosed PO QD×3 with 25 mg/kg. Tissues were collected 6 h after the last dose, and analysis of NQO1 activity was performed.

[7] = Distribution into mouse tissues after PO QD×3; format: in vivo; settings: mice PO QD×3 25 mg/kg, 6 h after last dose, semi-quantitative
Procedure: Semi-quantitative analysis of drug content was performed.

[8] = system: LPS-induced NO (plasma NOx, Griess Reaction); experiment: Suppression of NO in vivo after LPS in CD-1 mice; design: species or system mouse; settings: LPS 5 mg/kg 24 h later
Procedure: FIG. 51—Dose-dependent suppression of NO in vivo by 63415. CD-1 mice (n=6) were dosed with DMSO or […] by oral gavage. LPS (5 mg/kg) was administered 24 h later. Twenty-four hours after LPS administration, whole blood was collected for NO assay. NO inhibition was determined by Griess Reaction from reduced, de-proteinated plasma.

[9] = Polymorph screen: crystallization and drying experiments (FT-Raman, PXRD, TG-FTIR, DSC); format: physicochemical
Procedure: A preformulation and polymorphism study was performed for compound 63415. […] A total of 30 crystallization experiments, including phase equilibrations, drying experiments and other techniques, were carried out. All obtained solids were characterized by FT-Raman spectroscopy. All new forms were characterized by PXRD and TG-FTIR, and optionally by DSC and DVS.
All obtained materials were characterized by FT-Raman spectroscopy; selected samples were also characterized by PXRD.
Suspension equilibration experiments were carried out in one solvent and eleven solvent mixtures (Table 13). Suspensions of ˜100 mg of PP415-P1 in 0.2-2.0 mL of the selected solvents were prepared and shaken for 4-15 days at 22-24° C. The solids were recovered and characterized by FT-Raman spectroscopy; most were characterized also by PXRD.
Hot solutions of PP415-P1 were prepared in one solvent and four solvent mixtures (Table 14). […] In two cases (-P22, -P23) no solid precipitated, even after storage at 4-5° C. for two days. Here, the solvent was evaporated under N2 flow at r.t. The solids were recovered and characterized by FT-Raman spectroscopy and for those with spectra different from the amorphous starting material, FT-Raman class 1, also by PXRD.
Clear solutions of PP415-P1 were prepared in three solvent mixtures (Table 15). The solvents were then slowly evaporated at r.t. under ambient conditions. However, in two of the three experiments (-P15 and -P17) white solid precipitated before evaporation began. The obtained solids were examined by FT-Raman spectroscopy and PXRD.
At least one sample of each class was dried under vacuum with the aim to desolvate the solvates and to obtain non-solvated crystalline forms of 63415 (Table 16). The dried materials were characterized further by FT-Raman, PXRD, and TG-FTIR.
Bruker RFS100 with OPUS 6.5 software; Nd:YAG 1064-nm excitation, Ge detector, 3500-100 cm^−1 range; typical measurement conditions: 100-300 mW nominal laser power, 64-128 scans, 2 cm^−1 resolution.
Stoe Stadi P; Mythen1K Detector; Cu—Kα radiation; standard measurement conditions: transmission; 40 kV and 40 mA tube power; curved Ge monochromator; 0.02°2θ step size, 12 s or 60 s step time, 1.5-50.5°2θ or 1.0-55°2θ scanning range; detector mode: step scan; 1°2θ or 6°2θ detector step; standard sample preparation: 10 to 20 mg sample was placed between two acetate foils; sample holder: Stoe transmission sample holder; the sample was rotated during the measurement.
Netzsch Thermo-Microbalance TG 209 with Bruker FT-IR Spectrometer Vector 22; aluminum crucible (with microhole), N2 atmosphere, 10 K/min heating rate, 25-250° C. or 25-350° C. range.
Perkin Elmer DSC 7; gold crucibles (closed or with microhole), sample filled in an N2 environment, 10 K/min heating rate, −50 to 250° C. or 350° C. range, at times quench cooling (at −200 K/min) to −50° C. between scans.

[10] = Dynamic vapor sorption (hygroscopicity); format: physicochemical
Procedure: Projekt Messtechnik Sorptions Prüfsystem SPS 11-100n or Surface Measurement Systems DVS-1. The sample was placed on an aluminum or platinum holder on top of a microbalance and allowed to equilibrate for 2 h at 50% r.h. before starting the pre-defined humidity program: • (1) 50→0% r.h. (5%/h); 5 h at 0% r.h. • (2) 0→95% r.h. (5%/h); 5 h at 95% r.h. • (3) 95→50% r.h. (5%/h); 2 h at 50% r.h.

[11] = not viability normalized, read-out: NF-κB IC50, human A549 cell line (further experimentation)
[12] = read-out: NF-κB IC50, human A549 cell line, viability normalized
[13] = not viability normalized, read-out: NIH3T3/NF-κB IC50
[14] = viability normalized, read-out: NIH3T3/NF-κB IC50, normalized for viability

| SMILES | IC50 [1, 11] [µM] | IC50 [1, 12] [µM] | Fold increase in amount of compound needed compared to RTA 402 for the same activity [2] [fold] | Concentration required to increase transcription from the NQO1 ARE by 2-fold [3] [nM] | efflux ratio [4] | IC50 [5, 13] [µM] | IC50 [5, 14] [µM] | further results |
| --- | --- | --- | --- | --- | --- | --- | --- | --- |
| CC(=O)N[C@]12CCC(C)(C)C[C@H]1[C@H]1C(=O)C=C3[C@@]4(C)C=C(C#N)C(=O)C(C)(C)[C@@H]4CC[C@@]3(C)[C@]1(C)CC2 [Compound 63170] | 1 | 1.1 | 3.40 | 25.2 | 10 | 1.1 | 1.1 |  |
| CC1(C)CC[C@]2(NC(=O)C(F)(F)F)CC[C@]3(C)[C@H](C(=O)C=C4[C@@]5(C)C=C(C#N)C(=O)C(C)(C)[C@@H]5CC[C@]43C)[C@@H]2C1 [Compound 63171] | 2 | 2.1 | 2.65 |  | 11.2 | 1.7 | 1.8 |  |
| CC1(C)CC[C@]2(NC(=O)CC(F)(F)F)CC[C@]3(C)[C@H](C(=O)C=C4[C@@]5(C)C=C(C#N)C(=O)C(C)(C)[C@@H]5CC[C@]43C)[C@@H]2C1 [Compound 63179] | 1.4 | 1.5 | 6.05 | 29.1 | 56.5 | 0.2 | 0.6 |  |
| CCC(=O)N[C@]12CCC(C)(C)C[C@H]1[C@H]1C(=O)C=C3[C@@]4(C)C=C(C#N)C(=O)C(C)(C)[C@@H]4CC[C@@]3(C)[C@]1(C)CC2 [Compound 63189] | 1.1 | 1.2 | 3.47 | 14.9 | 57.1 | 1.1 | 1 |  |
| CC1(C)CC[C@]2(CO)CC[C@]3(C)[C@H](C(=O)C=C4[C@@]5(C)C=C(C#N)C(=O)C(C)(C)[C@@H]5CC[C@]43C)[C@@H]2C1 [Compound 63355] |  |  |  |  |  |  |  | NQO1-ARE (fold at 62.5 nM in HuH7) ([3]; 62.5 nM): 6.5 ± 0.9 fold |
| CCNC(=O)[C@]12CCC(C)(C)C[C@H]1[C@H]1C(=O)C=C3[C@@]4(C)C=C(C#N)C(=O)C(C)(C)[C@@H]4CC[C@@]3(C)[C@]1(C)CC2 [RTA 405, reference compound] |  |  |  |  |  |  |  | NQO1 activity induction, Kidney [6]: 8.25; NQO1 activity induction, Liver [6]: 1.93; NQO1 activity induction, Lung [6]: 1.48; concentration at 6 h ([7]; brain, read-out: Drug content, Brain): 0.093 µM; concentration at 6 h ([7]; kidney, read-out: Drug content, Kidney): 2.36 µM; concentration at 6 h ([7]; liver, read-out: Drug content, Liver): 1.14 µM; concentration at 6 h ([7]; lung, read-out: Drug content, Lung): 1.63 µM; concentration at 6 h ([7]; plasma, read-out: Drug content, Plasma): 0.13 µM; concentration at 6 h ([7]; whole blood, read-out: Drug content, Whole Blood): 1.17 µM; NOx Levels (% vs LPS Controls) ([8]; 13 mg/kg oral gavage): 44%; NOx Levels (% vs LPS Controls) ([8]; 25 mg/kg oral gavage): 26%; NOx Levels (% vs LPS Controls) ([8]; 50 mg/kg oral gavage): 18% |
| CC1(C)CC[C@]2(NC(=O)C(C)(F)F)CC[C@]3(C)[C@H](C(=O)C=C4[C@@]5(C)C=C(C#N)C(=O)C(C)(C)[C@@H]5CC[C@]43C)[C@@H]2C1 [desolvated class 4] |  |  |  |  |  |  |  | DSC: no decomposition up to [9]: no decomposition up to 270 °C; TG-FTIR: mass loss (solvent) ([9]; first or main loss, solvent and temperature range per sample as printed): TG-FTIR: loss of ~0.9 wt.-%; TG-FTIR: decomposition at T ([9]; listed as PP415-P37): decomposition at T > 280 °C; DVS: hygroscopicity class [10]: DVS: slightly hygroscopic; Δm = (mass increase <2% but ≧0.2%); DVS: total mass gain from 0% r.h. to 95% r.h. ([10]; 0% r.h. to 95% r.h.): mass gain of 2.1 wt.-% from 0%; DVS: Δm (50%→85% r.h.) ([10]; 50%→85% r.h., listed as PP415-P37): +0.7% (50%→85% r.h.); total; post-DVS Raman and/or PXRD: solid form ([10]; after DVS, listed as PP415-P37): to class 4; Hygroscopicity classification (DVS) ([10]; mass gain at 85% r.h.): slightly hygroscopic (mass increase <2% but ≧0.2%) |
